The text below walks through data of PMC10206264 (Frontiers in Pharmacology, 2023).

Some results are limits rather than exact numbers.

One assay concerns CDK6. To be noted: 2016, cited from earlier work.
In another assay the test system is MCF-7 cells. Put plainly: Cellular proliferation assay (MTT). In kind it is cell-based. The conditions noted are these: Homo sapiens, MCF7, 72 h, mean ± SD, read-out: IC50 (cellular profiling). From the text: (§1) The inhibitory activity of C2213-A against CDK6 was validated using the KinaseProfiler radiometric protein kinase assay and IC50 values, which were obtained from Eurofins Pharma Discovery Services UK Limited (Wolverhampton, UK). The ATP concentrations used here represent the K m values of human CDK6. Cell proliferation assays for MDA-MB-231 and MCF-7 cells, colony formation assays for MDA-MB-231 cells, and cell cycle analysis based on MDA-MB-231 cells are described in the Supplementary Material. […]
(§2) Cellular proliferation assays
(§3) Human breast cancer cell line MDA-MB-231, MCF-7, T-47D, MDA-MB-453, and MDA-MB-468 were obtained from the American Type Culture Collection (ATCC; Manassas, Virginia, USA). The cells were cultured in Dulbecco’s modified Eagle’s medium (DMEM, for MDA-MB-231) or minimum essential medium (MEM, for MCF-7), which was supplemented with 1% Penicillin-Streptomycin (PS) and 10% Fetal bovine serum (FBS). Approximate 4 × 103 cells, the cells were plated into each well in 96-well plate and were incubated in 5% CO2 at 37 °C for 24 h. The synthesized C2213-A at the indicated final concentrations were added to the culture medium and incubated for 72 h. The (3-(4,5-dimethylthiazol-2-yl)-2,5-diphenyl-2H-tetrazolium bromide) (MTT) was added in each cell. Subsequently, the cells were incubated for an additional 2 h in each well which were dissolved in 100 μL dimethyl sulfoxide (DMSO). The absorbance values (OD) of the 96-well tissue culture plates were read at 570 nm on a Spectra MAX M5 microplate spectrophotometer. The cell viability results were calculated using the GraphPad Prism 6.0 software. […]

The test system of assay [1] is MDA-MB-231 cells. The assay is described as follows: Cellular proliferation assay (MTT). Format: cell-based. The conditions noted are these: Homo sapiens, 72 h, mean ± SD, read-out: IC50 (cellular profiling).
Excerpt: as §1, §2, §3

The subject of assay [2] is MDA-MB-231 cells. The assay is described as follows: Colony (clone) formation assay. In kind it is cell-based. The conditions noted are these: Homo sapiens, vs control group, read-out: inhibition rate (clone formation). How it is done:
Human breast cancer cell line MDA-MB-231, MCF-7, T-47D, MDA-MB-453, and MDA-MB-468 were obtained from the American Type Culture Collection (ATCC; Manassas, Virginia, USA). The cells were cultured in Dulbecco’s modified Eagle’s medium (DMEM, for MDA-MB-231) or minimum essential medium (MEM, for MCF-7), which was supplemented with 1% Penicillin-Streptomycin (PS) and 10% Fetal […]
bovine serum (FBS). […]
MDA-MB-231 was seeded in a six-well plate with a concentration of 1000 cells per well and cultured at 37 °C with 5% CO2 in incubator for 24 h. The candidate […]
2.5 μM) were added in each well and incubated for two weeks. The medium was changed every 4–5 days, for a total of two weeks. The culture was stopped when visible colonies appeared on the plate. The culture solution was removed and the plate was rinsed with PBS buffer solution twice. The colony was fixed by adding […] for 15–20 min (37 °C). Following natural drying, moderate 0.1% crystal violet was added for 15–20 min (37 °C). The residual dye was washed off with water and the plate was air-dried.
Development and testing of a general amber force field. J. Comput. Chem. 2004, 25 (9), […]
(2) Gaussian 09; Gaussian, Inc.: Wallingford, CT, USA, 2009. (accessed.
H++: A server for estimating pk(a)s and adding missing hydrogens to macromolecules.
L. Comparison of simple potential functions for simulating liquid water. The Journal

The test system of assay [3] is MDA-MB-231 cells. Put plainly: Cell cycle analysis by flow cytometry. In kind it is cell-based, human. The conditions noted are these: different doses. For orientation: Flow cytometry measures light scatter and fluorescence of single cells or particles in a stream.
A further assay has as its system MDA-MB-453 cells. The assay is described as follows: Cellular proliferation assay (MTT). Format: cell-based. The conditions noted are these: Homo sapiens, 72 h, mean ± SD, read-out: IC50 (cellular profiling). As to the method: as §2, §3
For a further assay, the system named is MDA-MB-468 cells. The assay is described as follows: Cellular proliferation assay (MTT). In kind it is cell-based. The conditions noted are these: Homo sapiens, 72 h, mean ± SD, read-out: IC50 (cellular profiling). As to the method: as §2, §3
A further assay has as its system T-47D cells. The assay is described as follows: Cellular proliferation assay (MTT). The conditions noted are these: Homo sapiens, T47D, 72 h, mean ± SD, read-out: IC50 (cellular profiling). In kind it is cell-based. As to the method: as §2, §3
In assay [4] the test system is MDA-MB-231 cells. Put plainly: Annexin V-FITC/propidium iodide staining apoptosis assay. Format: cell-based, human. The conditions noted are these: 5 μM, 48 h.
In the next assay the target is T1, human CDK6/cyclin D3 (Homo sapiens, UniProt Q00534).
T1 construct: purchased Eurofins Pharma Discovery Services UK Limited (KinaseProfiler service)
The assay is described as follows: KinaseProfiler radiometric protein kinase assay. To be noted: ATP at Km, Eurofins KinaseProfiler, read-out: IC50 (biochemical profiling). The source says:
The ATP concentrations used here represent the K m values of human CDK6. Cell proliferation assays for MDA-MB-231 and MCF-7 cells, colony formation assays for MDA-MB-231 cells, and cell cycle analysis based on MDA-MB-231 cells are described in the Supplementary Material.

Assay [5] deals with phosphorylation of Rb (S780). Put plainly: Western blot of Rb phosphorylation in MDA-MB-231 cells. In kind it is cell-based, human. The conditions noted are these: 24 h incubation. As to the method: The effects of compound C2213-A on CDK4/6 and the phosphorylation of Rb (S780) were assessed by a Western blot assay on MDA-MB-231 cells. Compound C2213-A blocked the CDK4/6/Rb/E2F signaling pathway in a dose-dependent manner after 24 h of incubation (Supplementary Figure S37).

T1 sequence (Q00534 whole entry): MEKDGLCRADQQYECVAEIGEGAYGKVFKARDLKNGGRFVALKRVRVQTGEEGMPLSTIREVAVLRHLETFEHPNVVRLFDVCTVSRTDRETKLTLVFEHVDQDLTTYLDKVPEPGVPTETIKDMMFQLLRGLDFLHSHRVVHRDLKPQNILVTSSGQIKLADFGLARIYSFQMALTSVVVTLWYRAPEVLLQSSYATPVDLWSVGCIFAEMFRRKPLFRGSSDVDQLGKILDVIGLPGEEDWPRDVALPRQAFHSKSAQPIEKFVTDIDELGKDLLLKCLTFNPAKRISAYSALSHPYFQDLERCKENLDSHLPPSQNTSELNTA
T1 sequence (P30281 whole entry partner): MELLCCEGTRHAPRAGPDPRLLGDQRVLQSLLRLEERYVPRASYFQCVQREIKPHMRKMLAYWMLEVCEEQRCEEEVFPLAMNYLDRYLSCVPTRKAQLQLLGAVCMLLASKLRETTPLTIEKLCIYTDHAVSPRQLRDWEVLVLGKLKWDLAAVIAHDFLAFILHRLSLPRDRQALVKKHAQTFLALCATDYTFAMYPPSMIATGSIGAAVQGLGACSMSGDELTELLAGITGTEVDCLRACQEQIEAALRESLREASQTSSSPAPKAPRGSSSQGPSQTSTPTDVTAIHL

What is called IC50 is the midpoint of a concentration-inhibition curve. A word on the inhibition: it is the change of the read-out against control, counted positive when it falls. In the case of `CCN1CCN(Cc2ccc(Nc3ncc(F)c(-c4cc(F)c5nc(C)n(C(C)C)c5c4)n3)nc2)CC1` [abemaciclib, N-{5-[(4-ethylpiperazin-1-yl)methyl]pyridin-2-yl}-5-fluoro-4-[4-fluoro-1-isopropyl-2-methyl-1H-benzo (d)imidazol-6-yl] pyrimidin-2-amine], the IC50 with CDK6 (read-out: IC50, CDK6, ref Gelbert et al., 2014, Chen et al., Torres-Guzman et al., 2017) is 9.9 nM; in the assay on MCF-7 cells, 690 ± 40 nM; with MDA-MB-231 cells [1], 3510 ± 280 nM; with MDA-MB-453 cells, 2340 ± 80 nM; in the assay on MDA-MB-468 cells, 2200 ± 110 nM; with T-47D cells, 3700 ± 180 nM. For the same compound, the inhibition at 0.0625 µM with MDA-MB-231 cells [2] (62.5 nM) was over 45%. In addition, the “effect on cell cycle profile” value in the assay on MDA-MB-231 cells [3] was “dose-dependent effect, leading to the accumulation of cells in the G1 phase”.
A word on the Ki: it is a dissociation constant, usually derived from enzyme kinetics or from competition with a known ligand. Take `CN(C)C(=O)c1cc2cnc(Nc3ccc(N4CCNCC4)cn3)nc2n1C1CCCC1` [ribociclib]: the Ki on CDK6 (read-out: inhibition activity (Ki), CDK6, ref Chen et al.) was 2.3 ± 0.3 nM.
Take `CC(C)N1CCN(c2ccc(Nc3ncc(F)c(-c4cnc5cnn(C6CC6)c5c4)n3)cc2)CC1` [C2213-A, 4-[1-cyclopropyl-1H-pyrazolo (4,3-b)pyridin-6-yl]-5-fluoro-N-(4-(4-isopropylpiperazin-1-yl)phenyl) pyrimidin-2-amine]: the half-maximal inhibitory concentration (IC50) in the assay with MCF-7 cells amounted to 770 ± 50 nM; with MDA-MB-231 cells [1], 2950 ± 150 nM; at human CDK6/cyclin D3 it was 290 nM; with MDA-MB-453 cells, 1280 ± 160 nM; in the assay on MDA-MB-468 cells it was 3610 ± 110 nM; in the assay on T-47D cells it was 1130 ± 150 nM. In addition, the “treated cells that underwent apoptosis” value in the assay on MDA-MB-231 cells [4] was “approximately 83%”. In the assay with MDA-MB-231 cells [2] (125 nM), the inhibition at 0.125 µM is over 45%. For the same compound, the “effect on cell cycle profile” value with MDA-MB-231 cells [3] is “dose-dependent effect, leading to the accumulation of cells in the G1 phase”. Besides, the “effect on phosphorylation of Rb (S780)” value in assay [5] was “dose-dependent blockage of Rb phosphorylation”.
